Laboratory results: US9242933B2 (AbbVie Deutschland GmbH & Co. KG, priority 2007, dated 2016)

Target: T1, human mGlu2 receptor (Homo sapiens, UniProt Q14416)
T1 construct: expressed in transfected cells; host or cells: HEK293
Test: FLIPR intracellular Ca2+ assay, potentiation of glutamate response in HEK293 clone expressing mGlu2 receptor, rGLAST and Galpha16
Assay type: cell-based
Conditions: 1 μM glutamate added ten minutes after test compound, HEK293 cells with human mGlu2, rGLAST, Galpha16, read-out: EC50 values of potentiation effect to glutamate
From the text: The compounds of the present invention can be tested e.g. by evaluating intracellular Ca^2+ concentrations in cells permanently expressing human mGlu receptor, the rat glutamate transporter rGLAST and the Galpha16 subunit of the G-protein complex under standard conditions in a fluorometric imaging plate reader (FLIPR, Molecular Devices, Union City, Calif. 94587, USA) by measuring the response of the cells to a test compound in the absence of presence of glutamate. The FLIPR assay is a common functional assay to monitor native or recombinant Galphaq-coupled receptors, and native or recombinant receptors normally linked to other G-protein signalling cascades, which are coupled to calcium through co-expression of an alpha subunit of a promiscuous or chimeric G-protein. In the assay the increase of intracellular calcium is measured through a calcium-dependent fluorescent dye (e.g. Fluo-4 AM) in the FLIPR instrument.
For the purpose of the present study, a cell line permanently expressing a human mGlu receptor, such as the mGlu2 receptor, the rat glutamate transporter rGLAST and the GalphaG16 may be generated by transfection as described in the examples. For selection of a suitable cell clone and also the subsequent measurements, the selected clone the cells will be plated on suitable multiwell plates in a suitable medium (e.g. DMEM Glutamax (GIBCO #21885-025)/10% dialyzed FCS). Cells may be selected by gentamycin treatment as described in the examples. Cells will then be loaded with a suitable Ca^2+ sensitive fluorescence dye, e.g. with 2 μM Fluo-4 AM (Molecular Probes, F14201). Cells will then be washed with a suitable buffer (e.g. HEPES) and the thus treated plates will be measured in a fluorometric imaging plate reader (e.g. FLIPR, Molecular Devices, Union City, Calif. 94587, USA).
The compounds of the present invention were tested in the above-described FLIPR assay using the selected cell clone. Increased intracellular calcium levels were quantified following addition of test compound (agonism), as well as following addition of a submaximal concentration of glutamate (potentiation).
For the determination of the effect of the test compound by itself (agonism) or by increasing the response to a submaximal concentration (e.g. 1 μM) of glutamate (potentiation), the resulting signal is determined by subtraction of the background fluorescence from the maximal fluorescent peak height of the respective response. In the FLIPR instrument the compound is given to the cell and its fluorescence response quantified by the FLIPR instrument (agonism). The concentration at which the compound exerts half its maximal effect is named the ‘effective concentration 50’ or ‘EC50’. The maximal effect induced by the test substance is normalized to the maximal effect exerted by 100 μM glutamate (set at 100%).
After addition of the test compound to the plate, a submaximal concentration of glutamate (e.g. 1 μM glutamate) will be added. A potentiator enhances the response of the receptor to glutamate. The response to glutamate in the presence of test compound is quantified. The concentration at which the test compound is able to exert half its maximal potentiation effect to glutamate is named the ‘EC50’. The maximal response to the submaximal concentration of glutamate (e.g. 1 micromolar glutamate) in the presence of test compound is normalized to the maximal effect exerted by 100 micromolar glutamate (set at 100%). Least squares curve fitting with a four-parameter equation is then applied to the resulting dose-response curve to determine the resulting EC5O values (Graph Pad Prism).
For the purpose of the present study, a cell line permanently expressing the human mGlu2 receptor, the rat glutamate transporter rGLAST and the alpha subunit of G16 was generated by transfection. […]

T1 sequence (Q14416 19-872): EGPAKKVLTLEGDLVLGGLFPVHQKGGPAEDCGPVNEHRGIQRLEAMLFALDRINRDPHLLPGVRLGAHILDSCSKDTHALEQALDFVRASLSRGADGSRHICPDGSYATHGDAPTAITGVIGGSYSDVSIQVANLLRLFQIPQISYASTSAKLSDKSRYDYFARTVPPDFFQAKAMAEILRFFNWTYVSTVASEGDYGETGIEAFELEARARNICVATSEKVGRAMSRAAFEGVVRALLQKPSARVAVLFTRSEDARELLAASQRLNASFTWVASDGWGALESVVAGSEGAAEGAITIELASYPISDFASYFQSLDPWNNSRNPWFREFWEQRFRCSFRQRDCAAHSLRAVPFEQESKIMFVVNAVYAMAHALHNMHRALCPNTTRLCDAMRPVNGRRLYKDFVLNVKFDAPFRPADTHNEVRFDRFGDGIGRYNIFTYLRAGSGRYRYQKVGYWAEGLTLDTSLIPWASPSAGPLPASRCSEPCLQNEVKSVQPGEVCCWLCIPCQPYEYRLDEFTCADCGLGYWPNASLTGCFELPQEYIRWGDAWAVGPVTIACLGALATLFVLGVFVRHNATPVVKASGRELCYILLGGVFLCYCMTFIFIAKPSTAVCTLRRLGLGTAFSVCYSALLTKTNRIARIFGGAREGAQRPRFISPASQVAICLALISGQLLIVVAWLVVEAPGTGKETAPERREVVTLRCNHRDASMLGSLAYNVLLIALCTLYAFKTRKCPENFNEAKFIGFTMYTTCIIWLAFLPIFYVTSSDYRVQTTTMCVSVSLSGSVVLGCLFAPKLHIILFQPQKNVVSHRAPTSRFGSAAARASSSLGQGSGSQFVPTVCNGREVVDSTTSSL

| Compound | EC50 |
| --- | --- |
| CCCC(=O)c1ccc(NCc2nc(-c3cccs3)oc2C)cc1 [Example 245, 1-{4-[(5-Methyl-2-thiophen-2-yl-oxazol-4-ylmethyl)-amino]-phenyl}-butan-1-one] | 1 to 10 µM |
| CCN1Cc2cc(OCc3c[nH]nc3-c3cccc(C(F)(F)F)c3)ccc2C1=O [Example 558, 2-Ethyl-5-[3-(3-trifluoromethyl-phenyl)-1H-pyrazol-4-ylmethoxy]-2,3-dihydro-isoindol-1-one] | < 1 µM |
| CCCCN1Cc2cc(OCc3c[nH]nc3-c3ccccc3)ccc2C1=O [Example 551, 2-Butyl-5-(3-phenyl-1H-pyrazol-4-ylmethoxy)-2,3-dihydro-isoindol-1-one] | < 1 µM |
| O=C1c2ccc(OCc3c[nH]nc3-c3ccc(C(F)(F)F)cc3)cc2CN1Cc1ccc(OC(F)(F)F)cc1 [Example 585, 2-(4-Trifluoromethoxy-benzyl)-5-[3-(4-trifluoromethyl-phenyl)-1H-pyrazol-4-ylmethoxy]-2,3-dihydro-isoindol-1-one] | < 1 µM |
| CCCC(=O)c1ccc(NCc2cccnc2-c2ccsc2)cc1 [Example 321, 1-{4-[(2-Thiophen-3-yl-pyridin-3-ylmethyl)-amino]-phenyl}-butan-1-one] | 1 to 10 µM |
| CCN1Cc2cc(OCc3c[nH]nc3-c3ccccc3)ccc2C1=O [Example 563, 2-Ethyl-5-(3-phenyl-1H-pyrazol-4-ylmethoxy)-2,3-dihydro-isoindol-1-one] | < 1 µM |
| CCCC(=O)c1ccc(NCc2c(C)noc2C)cc1 [Example 227, 1-{4-[(3,5-Dimethyl-isoxazol-4-ylmethyl)-amino]-phenyl}-butan-1-one] | 1 to 10 µM |
| CCCC(=O)c1ccc(NCc2c[nH]nc2-c2ccc(Cl)cc2)cc1 [Example 217, 1-(4-{[3-(4-Chloro-phenyl)-1H-pyrazol-4-ylmethyl]-amino}-phenyl)-butan-1-one] | < 1 µM |
| CCCC(=O)c1ccc(OCc2c[nH]nc2-c2ccc(F)cc2)cc1 [Example 495, 1-{4-[3-(4-Fluorophenyl)-1H-pyrazol-4-ylmethoxy]-phenyl}-butan-1-one] | < 1 µM |
| CCCC(=O)c1ccc(NCc2c(C)nn(C(C)(C)C)c2C)cc1 [Example 58, 1-{4-[(1-tert-Butyl-3,5-dimethyl-1H-pyrazol-4-ylmethyl)amino]phenyl)butan-1-one] | 1 to 10 µM |
| CC(C)CCOc1ccc(NCc2c[nH]nc2C(C)(C)C)cc1 [Example 298, (3-tert-Butyl-1H-pyrazol-4-ylmethyl)-[4-(3-methyl-butoxy)-phenyl]-amine] | 1 to 10 µM |
| CCCC(=O)c1ccc(NCc2cc(-c3ccccc3F)no2)cc1 [Example 255, 1-(4-{[3-(2-Fluorophenyl)-isoxazol-5-ylmethyl]-amino}-phenyl)-butan-1-one] | 1 to 10 µM |
| Cc1cc(=O)c2ccc(NCc3c[nH]nc3-c3ccc(C(F)(F)F)cc3)cc2o1 [Example 400, 2-Methyl-7-{[3-(4-trifluoromethyl-phenyl)-1H-pyrazol-4-ylmethyl]-amino}-chromen-4-one] | 1 to 10 µM |
| CCCN1Cc2cc(OCc3c[nH]nc3-c3cccc(C(F)(F)F)c3)ccc2C1=O [Example 532, 2-Propyl-5-[3-(3-trifluoromethyl-phenyl)-1H-pyrazol-4-ylmethoxy]-2,3-dihydro-isoindol-1-one] | < 1 µM |
| CC(C)CN1Cc2cc(OCc3c[nH]nc3-c3ccc(C(F)(F)F)cc3)ccc2C1=O [Example 587, 2-Isobutyl-5-[3-(4-trifluoromethyl-phenyl)-1H-pyrazol-4-ylmethoxy]-2,3-dihydro-isoindol-1-one] | < 1 µM |
| O=C1c2ccc(OCc3c[nH]nc3-c3ccc(C(F)(F)F)cc3)cc2CN1CCBr [Example 564, 2-(2-Bromo-ethyl)-5-[3-(4-trifluoromethyl-phenyl)-1H-pyrazol-4-ylmethoxy]-2,3-dihydro-isoindol-1-one] | < 1 µM |
| CCCCC(=O)c1ccc(OCc2c[nH]nc2-c2ccc(C(F)(F)F)cc2)cc1 [Example 490, 1-{4-[3-(4-Trifluoromethyl-phenyl)-1H-pyrazol-4-ylmethoxy]-phenyl}-pentan-1-one] | < 1 µM |

| Compound | EC50 |
| --- | --- |
| CCCC(=O)c1ccc(NCc2c[nH]nc2CC)cc1 [Example 478, 1-{4-[(3-Ethyl-1H-pyrazol-4-ylmethyl)-amino]-phenyl}-butan-1-one] | 1 to 10 µM |
| CCCC(=O)c1ccc(NCc2c[nH]nc2-c2ccc(C(F)(F)F)cc2)cc1 [Example 42] | < 1 µM |
| CCCC(=O)c1ccc(NCc2cnn(Cc3ccccc3)c2)cc1 [Example 220, 1-{4-[(1-Benzyl-1H-pyrazol-4-ylmethyl)-amino]-phenyl}-butan-1-one] | 1 to 10 µM |
| CCCN1Cc2cc(OCc3c[nH]nc3-c3ccccc3)ccc2C1=O [Example 537, 5-(3-Phenyl-1H-pyrazol-4-ylmethoxy)-2-propyl-2,3-dihydro-isoindol-1-one] | < 1 µM |
| CCCOc1ncccc1CNc1ccc(C(=O)CCC)cc1 [Example 311, 1-{4-[(2-Propoxy-pyridin-3-ylmethyl)-amino]-phenyl}-butan-1-one] | 1 to 10 µM |
| CN(C)c1ccc(N(Cc2cccnc2)S(=O)(=O)CC(F)(F)F)cc1 [Example 385, 2,2,2-Trifluoro-ethanesulfonic acid (4-dimethylamino-phenyl)-pyridin-3-ylmethyl-amide] | 1 to 10 µM |
| CCCN1Cc2cc(NCc3c[nH]nc3-c3ccc(Cl)cc3)ccc2C1=O [Example 576, 5-{[3-(4-Chloro-phenyl)-1H-pyrazol-4-ylmethyl]-amino}-2-propyl-2,3-dihydro-isoindol-1-one] | < 1 µM |
| CCCC(=O)c1ccc(NCc2c[nH]nc2-c2ccccc2Cl)cc1 [Example 510, 1-(4-{[3-(2-Chloro-phenyl)-1H-pyrazol-4-ylmethyl]-amino}-phenyl)-butan-1-one] | < 1 µM |
| CCCC(=O)c1ccc(NCc2c(C)nn(C)c2C)cc1 [Example 211, 1-{4-[(1,3,5-Trimethyl-1H-pyrazol-4-ylmethyl)-amino]-phenyl}-butan-1-one] | 1 to 10 µM |
| CCC(CC)Oc1cccc(NCc2c[nH]nc2-c2ccc(C(F)(F)F)cc2)c1 [Example 380, [3-(1-Ethyl-propoxy)-phenyl]-[3-(4-trifluoromethyl-phenyl)-1H-pyrazol-4-ylmethyl]-amine] | 1 to 10 µM |
| O=C1c2ccc(OCc3c[nH]nc3-c3ccc(F)cc3)cc2CN1CC(F)(F)F [Example 570, 5-[3-(4-Fluorophenyl)-1H-pyrazol-4-ylmethoxy]-2-(2,2,2-trifluoro-ethyl)-2,3-dihydro-isoindol-1-one] | < 1 µM |
| CCCC(=O)c1ccc(N(Cc2ccc(N(C)C)nc2)S(=O)(=O)CC(F)(F)F)cc1 [Example 391, 2,2,2-Trifluoro-ethanesulfonic acid (4-butyryl-phenyl)-(6-dimethylamino-pyridin-3-ylmethyl)-amide] | 1 to 10 µM |
| CCCC(=O)c1ccc(NCc2n[nH]c3ccc(OC)cc23)cc1 [Example 223, 1-{4-[(5-Methoxy-1H-indazol-3-ylmethyl)-amino]-phenyl}-butan-1-one] | 1 to 10 µM |
| CCCC(=O)c1ccc(NCc2c[nH]nc2-c2cccc(Cl)c2)cc1 [Example 509, 1-(4-{[3-(3-Chloro-phenyl)-1H-pyrazol-4-ylmethyl]-amino}-phenyl)-butan-1-one] | < 1 µM |
| CCCC(=O)c1ccc(NCc2c(C(F)(F)F)nn(C)c2Cl)cc1 [Example 53, 1-(4-{[5-Chloro-1-methyl-3-(trifluoromethyl)-1H-pyrazol-4-yl]methylamino}phenyl)butan-1-one] | 1 to 10 µM |
| CCC(CC)Oc1cccc(N(Cc2c[nH]nc2-c2ccc(C(F)(F)F)cc2)S(=O)(=O)CC(F)(F)F)c1 [Example 454, 2,2,2-Trifluoro-ethanesulfonic acid [3-(1-ethyl-propoxy)-phenyl]-[3-(4-trifluoromethyl-phenyl)-1H-pyrazol-4-ylmethyl]-amide] | 1 to 10 µM |
